One molecule from ChEMBL document CHEMBL1148064, “Nepheliosyne A, new C47 acetylenic acid from the Okinawan marine sponge Xestospongia sp” (1994) can be followed below.

The subject of one assay is KB. Nature of the assay: Cytotoxicity against human KB cells at 20 ug/cm'3. In kind it is functional.
Another assay relates to L1210. Nature of the assay: Cytotoxicity against mouse L1210 cells at 20 ug/cm'3. In kind it is functional.

Consider `C#CC(O)/C=C/C(O)C/C=C/CC(O)C#CC(O)C#CC(O)CCC/C=C\CCCCCCCCC(O)C(=O)CCCCCCCCCC(O)CC(O)C#CC(=O)O` (configuration not stated) [NEPHELIOSYNE A], for which the Activity was found to be 14% in the assay on KB and 40% in the assay on L1210.
